# Measured values published in US20180194762A1 (Pharmacyclics LLC, priority 2017, published 2018).
# Like-named read-outs stand apart in the source and are kept apart here.
# Tests used:
# Assay type in all cases: biochemical
# Btk = molecular target: T1, Btk (Homo sapiens, UniProt Q06187); assay: Btk in vitro inhibitory activity (one of Method A TR-FRET, Method B electrophoretic mobility shift, Method C radiometric filter binding)
# T1 construct: purified from insect cells as a full-length construct containing a N-terminal 6X-His tag; His6 (N); made in house; host or cells: insect cells (Method C)
# Summary of the method: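 Method A: TR-FRET with 0.5 nM Btk at [ATP]=Km, EDTA-quenched, 665/615 nm ratio; Ki(app) converted to IC50. Method B: 1 nM full-length His6 human BTK, 1 μM FAM peptide, pH 7.5, mobility-shift product/sum ratio, 12-point 4-parameter fit. Method C: radiometric filter binding, 8 nM His-tagged BTK, 0.2 mg/mL poly-Glu-Tyr.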
# TEC = molecular target: T2, TEC (Homo sapiens, UniProt P42680); assay: Inhibition of a panel of kinases (in vitro HotSpot kinase assay, 33P-ATP, 1 μM ATP); details: for IC50: HotSpot kinase assay, 1 μM ATP; for TEC/Btk: ratio of TEC IC50 to Btk IC50 (selectivity)
# T2 sequence (P42680 1-631): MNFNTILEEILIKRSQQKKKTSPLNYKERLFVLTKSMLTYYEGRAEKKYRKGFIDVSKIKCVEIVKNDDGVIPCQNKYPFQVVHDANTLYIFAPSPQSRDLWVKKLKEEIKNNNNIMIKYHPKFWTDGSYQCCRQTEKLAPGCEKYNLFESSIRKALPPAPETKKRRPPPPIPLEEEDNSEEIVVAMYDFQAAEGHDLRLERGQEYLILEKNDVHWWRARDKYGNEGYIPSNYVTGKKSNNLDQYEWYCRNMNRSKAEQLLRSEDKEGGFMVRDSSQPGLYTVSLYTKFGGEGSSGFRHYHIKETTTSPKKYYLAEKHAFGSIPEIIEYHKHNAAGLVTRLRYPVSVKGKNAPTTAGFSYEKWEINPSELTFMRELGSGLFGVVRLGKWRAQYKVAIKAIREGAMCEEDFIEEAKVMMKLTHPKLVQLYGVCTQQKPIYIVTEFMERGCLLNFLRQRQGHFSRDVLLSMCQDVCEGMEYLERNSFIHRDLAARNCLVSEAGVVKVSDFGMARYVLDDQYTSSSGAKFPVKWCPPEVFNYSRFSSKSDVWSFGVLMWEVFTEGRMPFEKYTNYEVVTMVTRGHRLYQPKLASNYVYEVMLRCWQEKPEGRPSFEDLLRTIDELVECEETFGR
# Summary of the method: (§1)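 Degree of kinase inhibition is determined in vitro using isolated enzymes, a matched substrate and radiolabelled ATP (1 μM).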
# panel of kinases = molecular target: T3, panel of kinases (Homo sapiens, UniProt P51813); assay: Inhibition of a panel of kinases (in vitro HotSpot kinase assay, 33P-ATP, 1 μM ATP), other kinases; details: BMX wild-type, read-out: BMX-WT IC50
# T3 sequence (P51813 1-675): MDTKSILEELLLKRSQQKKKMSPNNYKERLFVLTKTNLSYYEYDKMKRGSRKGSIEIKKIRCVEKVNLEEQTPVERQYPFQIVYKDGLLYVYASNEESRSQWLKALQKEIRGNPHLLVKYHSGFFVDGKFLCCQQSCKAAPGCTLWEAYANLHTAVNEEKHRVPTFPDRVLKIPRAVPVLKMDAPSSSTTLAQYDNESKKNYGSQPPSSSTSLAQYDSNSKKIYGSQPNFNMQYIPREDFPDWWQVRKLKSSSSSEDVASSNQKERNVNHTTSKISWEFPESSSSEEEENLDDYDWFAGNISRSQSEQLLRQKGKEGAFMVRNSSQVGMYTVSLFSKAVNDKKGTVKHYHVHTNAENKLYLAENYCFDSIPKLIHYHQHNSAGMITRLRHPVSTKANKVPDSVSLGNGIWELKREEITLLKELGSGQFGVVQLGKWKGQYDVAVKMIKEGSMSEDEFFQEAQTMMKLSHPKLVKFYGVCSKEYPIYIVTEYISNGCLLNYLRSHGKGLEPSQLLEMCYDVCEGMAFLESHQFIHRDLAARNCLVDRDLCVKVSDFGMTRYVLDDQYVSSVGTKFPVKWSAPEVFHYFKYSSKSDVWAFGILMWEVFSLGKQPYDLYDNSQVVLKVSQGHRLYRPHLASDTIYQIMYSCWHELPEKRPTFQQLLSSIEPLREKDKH
# Summary of the method: as §1
# [1] = wild-type Btk, read-out: Btk-WT IC50
# [2] = method is one of A, B or C, not stated which, read-out: IC50 values against Btk
# T1 sequence (Q06187 whole entry): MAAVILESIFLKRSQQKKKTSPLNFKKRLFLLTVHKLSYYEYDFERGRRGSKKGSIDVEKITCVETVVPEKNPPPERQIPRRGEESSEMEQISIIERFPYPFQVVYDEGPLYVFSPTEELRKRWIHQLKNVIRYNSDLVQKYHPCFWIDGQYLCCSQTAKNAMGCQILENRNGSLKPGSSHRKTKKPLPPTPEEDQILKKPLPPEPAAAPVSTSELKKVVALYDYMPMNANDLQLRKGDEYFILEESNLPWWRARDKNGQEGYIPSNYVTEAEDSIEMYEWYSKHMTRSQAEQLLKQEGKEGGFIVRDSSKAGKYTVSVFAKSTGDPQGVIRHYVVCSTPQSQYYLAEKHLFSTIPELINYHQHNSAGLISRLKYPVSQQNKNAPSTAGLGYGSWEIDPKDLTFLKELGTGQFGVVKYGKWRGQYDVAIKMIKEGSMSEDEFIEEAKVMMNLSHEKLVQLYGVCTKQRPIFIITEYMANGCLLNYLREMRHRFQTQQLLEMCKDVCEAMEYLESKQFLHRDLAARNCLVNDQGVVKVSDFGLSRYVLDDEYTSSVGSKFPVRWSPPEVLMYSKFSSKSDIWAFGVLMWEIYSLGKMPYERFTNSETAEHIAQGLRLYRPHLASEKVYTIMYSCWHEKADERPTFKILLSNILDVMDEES
SMILES,IC50 (Btk; [1]) [nM],IC50 (TEC) [nM],IC50 (panel of kinases) [nM],TEC/Btk (TEC),IC50 (Btk; [2]) [nM]
"C=CC(=O)N[C@@H]1CCN(c2n[nH]c3nccc(-c4ccc(CNC(=O)c5coc(C(C)C)n5)c(F)c4)c23)C1 [Example 359, N-{[2-fluoro-4-(3-{(3R)-3-[(prop-2-enoyl)amino]pyrrolidin-1-yl}-1H-pyrazolo[3,4-b]pyridin-4-yl)phenyl]methyl}-2-(propan-2-yl)-1,3-oxazole-4-carboxamide]",0.402,68.5,58.8,–,–
"C=CC(=O)N1CC[C@@H](Nc2n[nH]c3nccc(-c4ccc([C@H](C)NC(=O)c5ccc(C(C)(C)C)cc5)cc4)c23)C1 [Example 97, 4-tert-butyl-N-[(1S)-1-[4-(3-{[(3R)-1-(prop-2-enoyl)pyrrolidin-3-yl]amino}-1H-pyrazolo[3,4-b]pyridin-4-yl)phenyl]ethyl]benzamide]",309,1570,709,5,–
"CN(C)C(=O)N1CC[C@@H](Nc2n[nH]c3nccc(-c4ccc(CNC(=O)c5coc(C6CC6)n5)c(F)c4)c23)C1 [Example 329, 2-cyclopropyl-N-{[4-(3-{[(3R)-1-(dimethylcarbamoyl)pyrroli-din-3-yl]amino}-1H-pyrazolo[3,4-b]pyridin-4-yl)-2-fluorophenyl]methyl}-1,3-oxazole-4-carboxamide]",307,5720,5900,–,–
"CC(C)c1nc(C(=O)NCc2ccc(-c3ccnc4[nH]nc(N5CC[C@@H](N)C5)c34)cc2F)no1 [Example 370, N-[(4-{3-[(3R)-3-aminopyrrolidin-1-yl]-1H-pyrazolo[3,4-b]pyridin-4-yl}-2-fluorophenyl)methyl]-5-(propan-2-yl)-1,2,4-oxadiazole-3-carboxamide]",6.98,3880,1740,–,–
"CN(C)C/C=C/C(=O)N[C@@H]1CCN(c2n[nH]c3nccc(-c4ccc(CNC(=O)c5cc(C(C)(C)C)on5)c(F)c4)c23)C1 [Example 309, 5-tert-butyl-N-[(4-{3-[(3R)-3-{[(2E)-4-(dimethylamino)but-2-enoyl]amino}pyrrolidin-1-yl]-1H-pyrazolo[3,4-b]pyridin-4-yl}-2-fluorophenyl)methyl]-1,2-oxazole-3-carboxamide]",0.434,1070,1010,–,–
"C[C@@H](NC(=O)c1cc(C(C)(C)O)on1)c1ccc(-c2ccnc3[nH]nc(N4CCOCC4)c23)cc1 [Example 404, 5-(2-hydroxypropan-2-yl)-N-[(1R)-1-{4-[3-(morpholin-4-yl)-1H-pyrazolo[3,4-b]pyridin-4-yl]phenyl}ethyl]-1,2-oxazole-3-carboxamide]",18,685,498,–,–
"C=CC(=O)N1CC[C@@H](Nc2n[nH]c3nccc(-c4ccc(CNC(=O)c5cc6c(n5C)CC(C)(C)C6)c(F)c4)c23)C1 [Example 158, N-{[2-fluoro-4-(3-{[(3R)-1-(prop-2-enoyl)pyrrolidin-3-yl]amino}-1H-pyrazolo[3,4-b]pyridin-4-yl)phenyl]methyl}-1,5,5-trimethyl-1H,4H,5H,6H-cyclopenta[b]pyrrole-2-carboxamide]",7.71,394,170,51,< 10
"C=CC(=O)N1CC[C@@H](Nc2n[nH]c3nccc(-c4ccc(CNC(=O)c5nn6c(c5C)OCCC6)c(F)c4)c23)C1 [Example 376, N-{[2-fluoro-4-(3-{[(3R)-1-(prop-2-enoyl)pyrrolidin-3-yl]amino}-1H-pyrazolo[3,4-b]pyridin-4-yl)phenyl]methyl}-3-methyl-6,7-dihydro-5H-pyrazolo[5,1-b][1,3]oxazine-2-carboxamide]",7.99,344,115,–,–
"C[C@H]1CC[C@@H](Nc2n[nH]c3nccc(-c4ccc(CNC(=O)c5noc(C(C)(C)C)n5)c(F)c4)c23)CN1C(=O)N1CCOCC1 [Example 230, 5-tert-butyl-N-{[2-fluoro-4-(3-{[(3R,6S)-6-methyl-1-(morpholine-4-carbonyl)piperidin-3-yl]amino}-1H-pyrazolo[3,4-b]pyridin-4-yl)phenyl]methyl}-1,2,4-oxadiazole-3-carboxamide]",0.412,472,856,1146,–
"CC(C)(C)c1nc(C(=O)NCc2ccc(-c3ccnc4[nH]nc(N[C@H]5CCN(C=O)C5)c34)cc2F)no1 [Example 93, 5-tert-butyl-N-{[2-fluoro-4-(3-{[(3S)-1-formylpyrrolidin-3-yl]amino}-1H-pyrazolo[3,4-b]pyridin-4-yl)phenyl]methyl}-1,2,4-oxadiazole-3-carboxamide]",11.7,3770,3340,322,–

# The remaining molecules from weak to strong by IC50 (Btk; [1]), led by results:
IC50 (Btk; [1]) [nM],IC50 (TEC) [nM],IC50 (panel of kinases) [nM],TEC/Btk (TEC),IC50 (Btk; [2]) [nM],SMILES
225,1320,912,6,–,"C[C@H]1CC[C@@H](Nc2n[nH]c3nccc(-c4ccc(CNC(=O)c5cc(C(C)(C)C)on5)c(F)c4)c23)CN1 [Example 144, 5-tert-butyl-N-{[2-fluoro-4-(3-{[(3R,6S)-6-methylpiperidin-3-yl]amino}-1H-pyrazolo[3,4-b]pyridin-4-yl)phenyl]methyl}-1,2-oxazole-3-carboxamide]"
64.1,741,141,–,–,"C=CC(=O)N1CC[C@@H](Nc2n[nH]c3nccc(-c4ccc(CNC(=O)c5ccc6ocnc6c5)c(F)c4)c23)C1 [Example 379, (R)-N-{[2-fluoro-4-(3-{[1-(prop-2-enoyl)pyrrolidin-3-yl]amino}-1H-pyrazolo[3,4-b]pyridin-4-yl)phenyl]methyl}-1,3-benzoxazole-5-carboxamide]"
9.53,2270,9390,–,–,"C[C@H]1CC[C@@H](Nc2n[nH]c3nccc(-c4ccc(CNC(=O)c5nc(C(C)(C)C)no5)c(F)c4)c23)CN1C1COC1 [Example 411, 3-tert-butyl-N-{[2-fluoro-4-(3-{[(3R,6S)-6-methyl-1-(oxetan-3-yl)piperidin-3-yl]amino}-1H-pyrazolo[3,4-b]pyridin-4-yl)phenyl]methyl}-1,2,4-oxadiazole-5-carboxamide]"
0.242,213,218,880,< 10,"C=CC(=O)N1CC[C@@H](Nc2n[nH]c3nccc(-c4ccc(C5(NC(=O)c6nc(C(C)(C)C)no6)CC5)cc4)c23)C1 [Example 86, 3-tert-butyl-N-{1-[4-(3-{[(3R)-1-(prop-2-enoyl)pyrrolidin-3-yl]amino}-1H-pyrazolo[3,4-b]pyridin-4-yl)phenyl]cyclopropyl}-1,2,4-oxadiazole-5-carboxamide]"
0.0732,18.9,39.2,258,–,"C=CC(=O)N1CC[C@@H](Oc2n[nH]c3nccc(-c4ccc(CNC(=O)c5noc(C(C)(C)C)n5)c(F)c4)c23)C1 [Example 272, 5-tert-butyl-N-{[2-fluoro-4-(3-{[(3R)-1-(prop-2-enoyl)pyrrolidin-3-yl]oxy}-1H-pyrazolo[3,4-b]pyridin-4-yl)phenyl]methyl}-1,2,4-oxadiazole-3-carboxamide]"
0.0637,58.5,86.7,–,–,"C=CC(=O)N[C@H]1CC[C@@H](Nc2n[nH]c3nccc(-c4ccc(CNC(=O)c5noc(C(C)(C)C)n5)c(F)c4)c23)C1 [Example 320, 5-tert-butyl-N-({2-fluoro-4-[3-({(1R,3S)-3-[(prop-2-enoyl)amino]cyclopentyl}amino)-1H-pyrazolo[3,4-b]pyridin-4-yl]phenyl}methyl)-1,2,4-oxadiazole-3-carboxamide]"
